Test results as given in patent US20260070913A1, “7-AMINO-3,4-DIHYDROPYRIMIDOPYRIMIDIN-2-ONE DERIVATIVE HAVING INHIBITORY ACTIVITY FOR PROTEIN KINASES AND THERAPEUTIC PHARMACEUTICAL COMPOSITION COMPRISING SAME” (KOREA INSTITUTE OF SCIENCE AND TECHNOLOGY, priority 2020, published 2026).

Legend:
[1] = system: OCI-AML3 (N-Ras Q61L); assay: Proliferation inhibitory activity, OCI-AML3 cell line; assay type: cell-based; settings: Homo sapiens, OCI-AML-3
Experimental: (§1) The inhibitory activities of the compounds of the present disclosure against the proliferation of the mt-NRAS (G12D) Ba/F3 and OCI-AML3 (mt-NRAS) cell lines were measured, and the […] values thereof were calculated.
Referring to the results in Table 2, it can be seen that the compound of the present disclosure has inhibitory activity against the proliferation of the human acute myeloid leukemia cell line (OCI-AML3) having the NRAS mutant gene, and the effect thereof is remarkable. Therefore, it can be seen that the compound of the present disclosure is particularly effective as a therapeutic agent for acute myeloid leukemia (AML).

[2] = system: Ba/F3 (N-Ras G12D); assay: Proliferation inhibitory activity, mt-NRAS (G12D) Ba/F3 cell line; assay type: cell-based; settings: Mus musculus, BaF3
Experimental: as §1

[3] = biological target: ACK1 (Homo sapiens, UniProt Q07912); assay: Inhibitory activity against ACK1 kinase; assay type: biochemical
Sequence of ACK1 (Q07912 whole entry): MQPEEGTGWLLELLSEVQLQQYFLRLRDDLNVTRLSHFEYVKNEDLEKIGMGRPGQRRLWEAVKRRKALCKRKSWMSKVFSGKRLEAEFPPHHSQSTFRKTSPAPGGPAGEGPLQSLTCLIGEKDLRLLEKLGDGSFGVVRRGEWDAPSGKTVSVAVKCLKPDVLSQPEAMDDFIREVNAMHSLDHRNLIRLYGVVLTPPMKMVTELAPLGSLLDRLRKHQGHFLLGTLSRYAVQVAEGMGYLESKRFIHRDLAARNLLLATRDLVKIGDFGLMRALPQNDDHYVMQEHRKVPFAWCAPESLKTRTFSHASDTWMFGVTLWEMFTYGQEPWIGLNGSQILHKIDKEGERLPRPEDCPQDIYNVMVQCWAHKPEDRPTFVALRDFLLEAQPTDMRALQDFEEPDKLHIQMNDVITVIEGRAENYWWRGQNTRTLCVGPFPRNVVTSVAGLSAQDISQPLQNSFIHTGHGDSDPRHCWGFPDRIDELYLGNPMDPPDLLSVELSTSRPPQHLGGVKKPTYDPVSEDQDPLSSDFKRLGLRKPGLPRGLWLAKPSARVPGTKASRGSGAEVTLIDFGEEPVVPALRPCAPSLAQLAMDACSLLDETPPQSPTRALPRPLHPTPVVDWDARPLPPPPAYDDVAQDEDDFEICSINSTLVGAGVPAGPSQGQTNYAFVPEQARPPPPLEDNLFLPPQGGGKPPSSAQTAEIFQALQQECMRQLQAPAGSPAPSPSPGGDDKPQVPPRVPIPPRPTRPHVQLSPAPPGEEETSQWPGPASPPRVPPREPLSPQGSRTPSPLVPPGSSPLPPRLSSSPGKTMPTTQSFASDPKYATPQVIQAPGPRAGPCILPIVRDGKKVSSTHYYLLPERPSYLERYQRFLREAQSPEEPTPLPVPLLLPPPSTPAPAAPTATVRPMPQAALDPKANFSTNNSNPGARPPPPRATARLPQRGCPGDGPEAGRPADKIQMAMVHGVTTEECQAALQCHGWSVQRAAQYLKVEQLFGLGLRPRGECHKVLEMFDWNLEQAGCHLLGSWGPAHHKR
Experimental: (§2) The inhibitory activities of the compounds of the present disclosure against two kinases, GCK and ACK1, were measured, and the IC50 values thereof were calculated.

[4] = biological target: T1, GCK (Homo sapiens, UniProt Q12851); assay: Inhibitory activity against GCK kinase; assay type: biochemical
T1 sequence (Q12851 1-820): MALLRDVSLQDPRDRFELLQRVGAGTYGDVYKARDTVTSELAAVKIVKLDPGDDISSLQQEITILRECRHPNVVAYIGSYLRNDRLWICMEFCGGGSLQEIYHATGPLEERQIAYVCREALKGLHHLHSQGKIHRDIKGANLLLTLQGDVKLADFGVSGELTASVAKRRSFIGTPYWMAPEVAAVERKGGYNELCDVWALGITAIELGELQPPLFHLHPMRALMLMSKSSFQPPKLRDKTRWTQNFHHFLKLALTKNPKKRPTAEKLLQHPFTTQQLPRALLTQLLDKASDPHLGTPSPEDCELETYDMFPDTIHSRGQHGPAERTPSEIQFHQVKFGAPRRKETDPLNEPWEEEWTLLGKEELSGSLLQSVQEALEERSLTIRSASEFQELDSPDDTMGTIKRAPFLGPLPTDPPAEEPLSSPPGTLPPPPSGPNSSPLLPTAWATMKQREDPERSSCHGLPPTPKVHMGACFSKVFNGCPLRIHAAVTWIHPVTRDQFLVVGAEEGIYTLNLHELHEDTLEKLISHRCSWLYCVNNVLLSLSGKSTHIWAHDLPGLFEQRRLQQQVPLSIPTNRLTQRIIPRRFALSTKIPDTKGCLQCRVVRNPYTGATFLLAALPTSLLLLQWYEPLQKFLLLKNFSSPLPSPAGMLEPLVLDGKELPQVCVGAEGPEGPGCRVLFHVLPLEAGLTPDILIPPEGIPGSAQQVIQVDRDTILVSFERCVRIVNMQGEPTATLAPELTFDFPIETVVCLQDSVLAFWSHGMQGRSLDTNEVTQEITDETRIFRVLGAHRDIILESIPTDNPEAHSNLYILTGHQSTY
Experimental: as §2

SMILES: Cc1ccc(-c2ncc(-c3ccccc3OC(F)(F)F)[nH]2)cc1N1Cc2cnc(Nc3ccc(N4CCOCC4)cc3)nc2N(C)C1=O [Compound No. 18, 1-methyl-3-(2-methyl-5-(5-(2-(trifluoromethoxy)phenyl)-1H-imidazol-2-yl)phenyl)-7-((4-morpholinophenyl)amino)-3,4-dihydropyrimido[4,5-d]pyrimidin-2(1H)-one]
- GI50 [1]: > 5 µM
- GI50 [2]: 0.5 to 3 µM
- IC50 [3]: < 100 nM
- IC50 [4]: 1 to 10 µM
